Entries after “also recorded” stand apart in the source; their conditions may differ.

The target in test [1] is T1, STING (Mus musculus, UniProt Q3TBT3).
T1 sequence (Q3TBT3 1-378): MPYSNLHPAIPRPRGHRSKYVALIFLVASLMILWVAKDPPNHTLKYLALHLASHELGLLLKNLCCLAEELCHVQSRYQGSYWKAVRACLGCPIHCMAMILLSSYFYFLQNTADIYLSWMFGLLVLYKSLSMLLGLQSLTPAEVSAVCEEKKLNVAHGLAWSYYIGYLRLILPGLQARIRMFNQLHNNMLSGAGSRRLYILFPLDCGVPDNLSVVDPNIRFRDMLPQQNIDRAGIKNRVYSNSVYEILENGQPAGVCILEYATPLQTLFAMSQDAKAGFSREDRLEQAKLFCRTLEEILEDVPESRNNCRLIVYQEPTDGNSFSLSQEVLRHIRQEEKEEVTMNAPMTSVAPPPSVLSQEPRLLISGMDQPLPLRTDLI
The test is described as follows: Cytokine secretion (ELISA) from DMXAA-activated splenocytes. The test is classed as cell-based, C57BL/6 mice. Also on record: Splenocytes were recovered from C57BL/6 WT female mice; endogenous in cells; host or cells: primary splenocytes of C57BL/6 mice. The note with it: for Mode of action on STING (overall): summary over various cell types, DMXAA stimulation; for STING inhibition (ranking): at 5,000 nM, resting splenocytes. The protocol: FIGS. 1A-1B include bar graphs showing that Cluster 1 and 9 inhibit tumor necrosis factor alpha (TNFα) while only cluster 1 promotes IL-10 secretion from resting splenocytes activated by the selective STING agonist DMXAA. Splenocytes were recovered from C57BL/6 WT or STING^−/− female mice and were incubated (1×10^6 cells in 0.5 mL of culture media) overnight with a premade mixture of the individual compounds in each cluster (5-500 nM) or vehicle, and DMXAA (10 μM). Next, culture supernatants were collected and TNFα(1A) or IL-10 (1B) levels were determined by standard enzyme-linked immunosorbent assay ELISA (Biolegend).
(§1) FIGS. 2A-2D include graphs showing that compounds 5.9 and 7.9 inhibit TNFα and IL-10 secretion from DMXAA-activated splenocytes. Splenocytes were recovered from C57BL/6 WT female mice and incubated (1×10^6 cells in 0.5 mL of culture media) overnight with the individual compounds from cluster 9 (50-5,000 nM) or vehicle and DMXAA (5-10 μM; 2A-2B) or at 5,000 nM without DMXAA (2C-2D). Next, culture supernatants were collected and TNFα (2A, and 2C) or IL-10 (2B, and 2D) levels were determined by standard ELISA. In 2A-2B, black horizontal line indicates secretion level from vehicle-treated cells.
FIGS. 3A-3H include graphs and an image showing that compounds 2.1, 4.1, and 6.1 inhibit TNFα but promote IL-10 and IFN-beta secretion from DMXAA-activated splenocytes. Splenocytes were recovered from C57BL/6 WT female mice and incubated (1×10^6 cells in 0.5 mL of culture media) overnight with the individual compounds from cluster 1 (50-5,000 nM) or vehicle and DMXAA (10 μM; 3A, 3C, and 3E) or at 5,000 nM without DMXAA (3B, 3D, and 3F). Next, culture supernatants were collected and TNFα (3A-3B), IL-10 (3C-3D), or IFN-beta (3E-3F) levels were determined by standard ELISA. In 3A, 3C, and 3E, black horizontal line indicates secretion level from vehicle-treated cells. (3G-3H) Biased STING agonists (BiSTs) enhance DMXAA-induced STING signaling. Splenocytes were treated with 25 μg/ml DMXAA and 50 nM of compound 2.1 for 1-4 hr (3G). Then, the cells were analyzed by immunoblotting for phosphorylated STING, TBK-1, IRF3, and NF-kB, or their unphosphorylated controls, or actin as a loading control. Densitometry analysis for phosphorylated STING (p-STING) and STING proteins (3H) is also shown. Results are representative (3G) or mean±SEM (3H) from 3 repeats. One-way ANOVA, and Tukey HSD test *P<0.05.
(§2) Splenocytes were isolated from the spleens of unchallenged C57BL/6 WT or STING-KO mice by meshing against a grid. Peritoneal macrophages were isolated from mice undergoing peritonitis for 66 hr by washing with 5 ml PBS. The cellular exudate was stained with phycoerythrin (PE)-conjugated anti-F4/80 antibodies (bioLegend, CA, USA) and macrophages were isolated using magnetic beads (STEMCELL Technologies Inc, Vancouver, Canada). Isolated splenocytes or macrophages (0.5-1×10^6 cells per well) were incubated with 50-5,000 nM of individual substances or pooled clusters thereof. Then, the cells were treated with vehicle or 5-10 μM DMXAA (Cayman Chemical, MI, USA) to activate STING. After 24 hr, culture supernatants were collected and evaluated for levels of: TNFα, IFN-β and/or IL-10 using, standard ELISA (BioLegend, CA, USA).
To test which cluster(s) included compounds that modulate STING-mediated cytokine production, wild-type (WT) or STING knockout (−/−) splenocytes were incubated with the selective murine STING agonist DMXAA alone or with 5-500 nM of the pooled individual compounds in each cluster as indicated.
Next, the individual compounds in clusters 1 and 9 were tested at 50-5,000 nM. The first experiment was performed in resting splenocytes as detailed above.
Background: ELISA stands for enzyme-linked immunosorbent assay.

Test [2] concerns LPS-activated splenocytes. The test is described as follows: Cytokine secretion (ELISA) from LPS-activated splenocytes. The test is classed as cell-based, C57BL/6 mice. The following applies: for LPS-induced cytokine secretion / IFN-beta secretion / IL-10 secretion / TNFα secretion: 5,000 nM + LPS 1 μg/ml; for IFN-beta secretion / IL-10 secretion / TNFα secretion: overnight. The protocol:
FIGS. 4A-4C include vertical bar graphs showing that compounds 5.9 and 7.9 inhibit TNFα but promote IL-10 and IFN-beta secretion from lipopolysaccharides (LPS)-activated splenocytes. Splenocytes were recovered from C57BL/6 WT female mice and incubated (1×10^6 cells in 0.5 mL of culture media) overnight with the individual compounds from cluster 9 (5,000 nM) or vehicle and LPS (1 μg/ml). Next, culture supernatants were collected and TNFα (4A), IL-10 (4B), or IFN-beta (4C) levels were determined by standard ELISA.
STING was previously shown to be essential for LPS-induced IRF3 activation and IFN-β production. Therefore, further examination of whether the putative STING antagonists affect LPS-induced cytokine production was carried out.

For test [3], the target named is T1, STING. The test is described as follows: Cytokine secretion (ELISA) from DMXAA-activated resolution phase macrophages (zymosan A peritonitis). Further details: Mice were injected with zymosan A (1 mg/mouse), and peritoneal cells thereof were recovered after 66 hrs; endogenous in cells; host or cells: F4/80+ peritoneal exudate macrophages from mice with zymosan A peritonitis. The following applies: for IL-10 secretion / TNFα secretion: individual compounds 50-5,000 nM + DMXAA 5-10 μM; for Mode of action in resolution phase macrophages: summary heading; for TNFα induced by DMXAA: at 5000 nM. The test is classed as cell-based, mice. The protocol: Mice were injected with zymosan A (1 mg/mouse), and peritoneal cells thereof were recovered after 66 hrs. Exudate macrophages were isolated and incubated (1×10^6 cells in 0.5 mL of culture media) overnight with a premade mixture of the individual compounds in clusters 1 and 9 (5,000 nM; 5A and 5C), or the individual compounds (500-5,000 nM), or vehicle and DMXAA (5-10 μM). Next, culture supernatants were collected and TNFα (5A-5B) or IL-10 (5C-5D) levels were determined by standard ELISA (Biolegend).
as §2
To use a more physiological setting, macrophages were isolated from zymosan A-induced peritonitis and treated with the compounds alone (5,000 nM) or compounds (50-5,000 nM) with DMXAA, or DMXAA alone.

For test [4], the target named is T1, STING. Put plainly: Cytokine secretion (ELISA) from splenocytes without DMXAA. The test is classed as cell-based, C57BL/6 mice. Also on record: Splenocytes were recovered from C57BL/6 WT female mice; endogenous in cells; host or cells: primary splenocytes of C57BL/6 mice. The note with it: 5,000 nM. The protocol:
as §1
FIGS. 3A-3H include graphs and an image showing that compounds 2.1, 4.1, and 6.1 inhibit TNFα but promote IL-10 and IFN-beta secretion from DMXAA-activated splenocytes. […] Next, culture supernatants were collected and TNFα (3A-3B), IL-10 (3C-3D), or IFN-beta (3E-3F) levels were determined by standard ELISA. […] Then, the cells were analyzed by immunoblotting for phosphorylated STING, TBK-1, IRF3, and NF-kB, or their unphosphorylated controls, or actin as a loading control. […]
Splenocytes were isolated from the spleens of unchallenged C57BL/6 WT or STING-KO mice by meshing against a grid. […] After 24 hr, culture supernatants were collected and evaluated for levels of: TNFα, IFN-β and/or IL-10 using, standard ELISA (BioLegend, CA, USA). […]

[5] abbreviates: individual compounds 50-5,000 nM + DMXAA 5-10 μM, overnight.

For `O=C(CCc1c[nH]c2ccccc12)N1CCOc2ccc(CN3CCN(c4ccccn4)CC3)cc2C1` [Compound 7.9, 4-[3-(1H-indol-3-yl)propanoyl]-7-{[4-(2-pyridinyl)-1-piperazinyl]methyl}-2,3,4,5-tetrahydro-1,4-benzoxazepine], on STING [1] (setting [5]), the IL-10 secretion result is “inhibit” and the TNFα secretion result is on record as “inhibit”. Further, the “Mode of action on STING (overall)” value at STING [1] was “very efficient STING inhibitors”. Besides, in test [2], the LPS-induced cytokine secretion result is recorded as “much milder effects”, the IFN-beta secretion result is given as “promote”, the IL-10 secretion result was “promote” and the TNFα secretion result was “inhibit”. Besides, on STING [3], the IL-10 secretion entry is “best inhibitor; also recorded: inhibits”, the TNFα secretion entry is “best inhibitor; also recorded: inhibits” and the “Mode of action in resolution phase macrophages” value is on record as “Very Efficient STING Inhibitor”.
`Cc1ccc2c(-c3cc4c(n(CC5CC5)c3=O)CCN(C(=O)C3=NN(C)C(=O)CC3)C4)cccc2n1` [Compound 5.9, 1-(cyclopropylmethyl)-6-[(1-methyl-6-oxo-1,4,5,6-tetrahydro-3-pyridazinyl)carbonyl]-3-(2-methyl-5-quinolinyl)-5,6,7,8-tetrahydro-1,6-naphthyridin-2(1H)-one]: at STING [1], the “STING inhibition (ranking)” value was “Best STING Inhibitors” and the “Mode of action on STING (overall)” value is “very efficient STING inhibitors”. At STING [1] (setting [5]), the IL-10 secretion entry is recorded as “inhibit” and the TNFα secretion entry is on record as “doing so at lower concentrations; also recorded: best inhibitor; also recorded: inhibit”. For the same compound, in test [2], the IFN-beta secretion result is recorded as “enhances; also recorded: significant upregulation; also recorded: promote”; the IL-10 secretion result is “enhances; also recorded: significant upregulation; also recorded: promote”; the TNFα secretion result is “not and reducing and inhibiting and inhibit”. Further, the “Mode of action in LPS-stimulated splenocytes” value in test [2] (summary statement) is “biased agonist”. The TNFα secretion entry at STING [4] (absence of DMXAA stimulation) was “inhibited”. The “IL-10 induced by DMXAA” value on STING [3] (at 5,000 nM) was “enhanced”. Besides, the “TNFα induced by DMXAA” value at STING [3] was “enhanced”.
Regarding `CCOC(=O)N1CCC(NCc2cc3ccc(Cl)cc3n(CCOc3ccccc3)c2=O)CC1` [Compound 6.9, ethyl 4-({[7-chloro-2-oxo-1-(2-phenoxyethyl)-1,2-dihydro-3-quinolinyl]methyl}amino)-1-piperidinecarboxylate], the LPS-induced cytokine secretion entry in test [2] is “much milder effects”.
Take `c1ccc(-n2cccc2CN(Cc2cccnc2)Cc2ccc3c(c2)OCO3)nc1` [Compound 4.1, (1,3-benzodioxol-5-ylmethyl)(pyridin-3-ylmethyl)[(1-pyridin-2-yl-1H-pyrrol-2-yl)methyl]amine]: the IFN-beta secretion entry at STING [1] (individual compounds 50-5,000 nM + DMXAA 10 μM, overnight) is “promote”. For the same compound, the IL-10 secretion entry at STING [1] (setting [5]) is “induced IL-10 at all concentrations; also recorded: promote”; at STING [1] (individual compounds at 5,000 nM + DMXAA), “induces”; at STING [4] (without DMXAA), “only compound that induced IL-10; also recorded: induces”; on STING [3] it was “selective inducer”. Moreover, the TNFα secretion result at STING [1] (setting [5]) is “inhibit”. Moreover, the “Mode of action on STING (overall)” value on STING [1] is reported as “biased agonists; also recorded: most efficient biased agonist”. The “IL-10 induced by DMXAA” value is on record as “enhanced” at STING [3] (at 500 nM) and “not” at STING [3] (at 5,000 nM). Further, the “Mode of action in resolution phase macrophages” value at STING [3] is listed as “Biased Antagonist for TNFα”.
Take `COCC(=O)N(C)C(Cc1ccc(F)cc1)C1CCN(C(=O)c2ccc(-c3ccccc3)cc2)CC1` (stereo not shown) [Compound 3.1, N-[1-[1-(4-biphenylylcarbonyl)-4-piperidinyl]-2-(4-fluorophenyl)ethyl]-2-methoxy-N-methylacetamide]: the TNFα secretion entry at STING [3] is on record as “enhanced TNFα only”.
Turning to `Cc1ccc(C(=O)Nc2cnn(-c3ccc(C(=O)N4CCC(c5ccc(F)cc5)C4)cc3)c2)c(C)c1` (stereo not shown) [Compound 6.1, N-[1-(4-{[3-(4-fluorophenyl)-1-pyrrolidinyl]carbonyl}phenyl)-1H-pyrazol-4-yl]-2,4-dimethylbenzamide], on STING [1], the “STING inhibition (ranking)” value was “Best STING Inhibitors” and the “Mode of action on STING (overall)” value is given as “biased agonists”. Besides, the TNFα secretion result at STING [1] (setting [5]) is listed as “doing so at lower concentrations; also recorded: inhibit”. Moreover, the “IL-10 induced by DMXAA” value at STING [3] (at 5,000 nM) is recorded as “enhanced”. In addition, the “TNFα induced by DMXAA” value at STING [3] was “enhanced”.
As for `COc1ccccc1CCN1CCCC(CN(C)C(=O)Cc2cn(C)c3ccccc23)C1` (stereo not shown) [Compound 4.9], the “STING inhibition (ranking)” value on STING [1] is recorded as “Best STING Inhibitors”. The TNFα secretion entry at STING [1] (setting [5]) is “doing so at lower concentrations”.

The values are drawn from patent US20250302798A1, “STING INHIBITORS AND USE THEREOF” (CARMEL HAIFA UNIVERSITY ECONOMIC CORPORATION LTD., priority 2022, published 2025).
